From paper PMC3690538, “Structure of Rhomboid Protease in Complex with β-Lactam Inhibitors Defines the S2′ Cavity” (Structure(London, England:1993), 2013)

These molecules were tested against T1, GlpG (Escherichia coli, UniProt P09391) (assay: gel-based substrate cleavage, SDS-PAGE densitometry, four-parameter fit).
T1 construct: purified intramembrane serine protease in detergent
T1 sequence (P09391 1-276): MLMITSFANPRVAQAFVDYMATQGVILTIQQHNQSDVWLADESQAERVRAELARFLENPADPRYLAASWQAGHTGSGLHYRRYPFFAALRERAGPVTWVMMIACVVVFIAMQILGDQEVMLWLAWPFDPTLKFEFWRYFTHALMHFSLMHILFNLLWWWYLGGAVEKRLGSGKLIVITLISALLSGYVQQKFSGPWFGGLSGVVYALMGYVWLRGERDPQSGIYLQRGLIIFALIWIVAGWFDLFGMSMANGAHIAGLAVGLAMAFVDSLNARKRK
Assay type: biochemical
Work on `O=C1CC(c2ccccc2)N1C(=O)Oc1ccccc1` (racemic) [L29] yielded an IC50 of 1.12 ± 0.05 µM. `CC(C)COC(=O)N1C(=O)CC1c1ccccc1` (racemic) [L61] showed an IC50 of 11.7 ± 0.75 µM. Work on `O=C1CC(c2ccccc2)N1C(=O)OC1CCCC1` (racemic) [L62] yielded an IC50 of 5.27 ± 0.08 µM. For `O=C1CC(c2ccccc2)N1C(=O)OCc1ccccc1` (centres unmarked) [L59], the IC50 was 0.728 ± 0.06 µM. In the case of `O=C1CC(c2ccccc2)N1C(=O)Oc1ccc(Cl)cc1` (centres unmarked) [L60], the IC50 is reported as 1.09 ± 0.03 µM.
